Results taken from patent US12312599B2, “Methods, compositions, and kits for producing beige adipocytes and treating metabolic disorders” (MaineHealth, priority 2018, dated 2025).

Legend:
SMAD2 = assay: Western blot of phosphorylated SMAD2 in FD-MSCs; type: cell-based, human; settings: SB pretreatment 2 days in MesenCult-ACF
Method: All assays were performed between 7 and 15 passages. For osteocyte differentiation, mature MSCs were grown in 24 well culture plates to 100% confluency in MesenCult-ACF and induced to differentiate in OsteoLife Complete Osteogenesis Medium (Lifeline Cell Technology) for 21 days prior to staining with Lifeline Alizarin Red Stain to visualize calcium deposition. For chondrocyte differentiation. For beige adipogenic precursor generation, cells were grown in 24 well culture plates to 90% confluence and treated with 5 uM SB413542 (Sigma) and 10 nM human IL-4 (Peprotech) for 2 days. For beige adipogenic induction, adipogenic precursors are differentiated for 3 days with adipogenic medium consisting of T3 (2 nM), insulin (170 nM), rosiglitazone (1 μM), SB413542 (5 uM), IBMX (0.5 mM), dexamethasone (5 μM) and indomethacin (125 μM) in EGM-2 medium (Lonza) supplemented with the BulletKit minus FGF2 (modified from^33). Thereafter, cells are maintained in adipogenic medium without IBMX, dexamethasone and indomethacin. The medium was changed every 3 days and adipocytes were fully differentiated by 9-12 days as determined by lipid accumulation and peak expression of UCP1. […] SWATH runs were extracted and analyzed using PeakView software and MarkerView software was utilized to find statistically relevant relationships through t test comparisons. […]

FD-MSCs = assay: UCP1 expression time course of FD-MSCs during adipogenic differentiation; type: cell-based, human
Method: All assays were performed between 7 and 15 passages. For osteocyte differentiation, mature MSCs were grown in 24 well culture plates to 100% confluency in MesenCult-ACF and induced to differentiate in OsteoLife Complete Osteogenesis Medium (Lifeline Cell Technology) for 21 days prior to staining with Lifeline Alizarin Red Stain to visualize calcium deposition. For chondrocyte differentiation. For beige adipogenic precursor generation, cells were grown in 24 well culture plates to 90% confluence and treated with 5 uM SB413542 (Sigma) and 10 nM human IL-4 (Peprotech) for 2 days. For beige adipogenic induction, adipogenic precursors are differentiated for 3 days with adipogenic medium consisting of T3 (2 nM), insulin (170 nM), rosiglitazone (1 μM), SB413542 (5 uM), IBMX (0.5 mM), dexamethasone (5 μM) and indomethacin (125 μM) in EGM-2 medium (Lonza) supplemented with the BulletKit minus FGF2 (modified from^33). Thereafter, cells are maintained in adipogenic medium without IBMX, dexamethasone and indomethacin. The medium was changed every 3 days and adipocytes were fully differentiated by 9-12 days as determined by lipid accumulation and peak expression of UCP1. Cell Isolation, Expansion and Differentiation of Interscapular Brown Adipose Tissue Preadipocytes • 1. Prior to adipose cell isolation, warm DMEM, FBS and cell wash buffer to room temperature. • 2. […]

NC(=O)c1ccc(-c2nc(-c3ccc4c(c3)OCO4)c(-c3ccccn3)[nH]2)cc1 [SB, SB431542]
constitutive phosphorylation of SMAD2 (SMAD2): inhibited | shift of the peak of UCP1 expression (earlier) (FD-MSCs; additional SB pretreatment prior to adipogenic differentiation): 3 days | UCP1 gene expression (qPCR) (FD-MSCs; differentiated in the presence of SB): large increase
